Reference: US9499538B2, “Estrogen receptor modulators and uses thereof” (Seragon Pharmaceuticals, Inc., priority 2012, dated 2016)

Columns and labels:
MCF-7 cells = test: Breast Cancer Cell Viability Assays (MCF-7, CellTiter-Glo); type: cell-based; details: 5 days' compound exposure; for IC50: Homo sapiens, MCF7, 120 h
Procedure: MCF-7 cells were adjusted to a concentration of 20,000 cells per mL in RPMI containing 10% FBS and 20 mM HEPES. 16 microliters of the cell suspension (320 cells) was added to each well of a 384 well plate, and the cells were incubated overnight to allow the cells to adhere. The following day an eleven point, serial semilog dilution of each compound was added to the cells in 16 μL at a final concentration ranging from 0.3-0.000003 μM. After 5 days' compound exposure, 16 μL of CellTiter-GLo (Promega, Madison Wis.) was added to the cells, and the relative luminescence units (RLUs) of each well were determined. CellTiter-Glo added to 32 μL of medium without cells was used to obtain a background value. The Percent viability of each sample was determined as follows: (RLU sample−RLU background/RLU untreated cells−RLU background)×100=% viability. […]

ER-α in MCF-7 cells = target: T1, ER-α in MCF-7 cells (Homo sapiens, UniProt P03372); test: Breast Cancer Cell ER-α In Cell Western Assay (SP1); type: cell-based; details: 4 or 24 hr post compound addition; for Emax: MCF7, SP1 antibody, read-out: ER-α In Cell Western Assay (SP1) Max Response; for DC50: SP1 antibody, read-out: ER-α In Cell Western Assay (SP1) IC50
T1 construct: endogenous in cells; host or cells: MCF-7
T1 sequence (P03372 1-595): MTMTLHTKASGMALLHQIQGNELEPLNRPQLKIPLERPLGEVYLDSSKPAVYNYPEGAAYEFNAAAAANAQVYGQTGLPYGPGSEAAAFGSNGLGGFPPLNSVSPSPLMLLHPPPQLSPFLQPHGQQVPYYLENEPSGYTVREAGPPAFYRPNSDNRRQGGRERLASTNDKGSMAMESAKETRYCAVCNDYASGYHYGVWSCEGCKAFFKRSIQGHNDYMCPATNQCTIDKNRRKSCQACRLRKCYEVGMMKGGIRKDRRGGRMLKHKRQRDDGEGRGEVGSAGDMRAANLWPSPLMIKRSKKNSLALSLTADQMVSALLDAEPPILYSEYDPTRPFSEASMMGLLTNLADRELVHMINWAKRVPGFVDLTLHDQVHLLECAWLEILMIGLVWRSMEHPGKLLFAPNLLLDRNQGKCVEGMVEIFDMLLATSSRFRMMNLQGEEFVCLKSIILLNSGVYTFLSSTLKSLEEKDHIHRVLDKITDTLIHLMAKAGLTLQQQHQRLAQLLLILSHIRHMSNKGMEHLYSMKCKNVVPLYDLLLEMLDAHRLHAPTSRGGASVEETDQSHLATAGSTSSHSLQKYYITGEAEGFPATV
Procedure: MCF-7 cells were adjusted to a concentration of 200,000 cells per mL in RPMI containing 10% charcoal-stripped FBS and 20 mM HEPES. 16 microliters of the cell suspension (3200 cells) was added to each well of a poly-D-lysine 384 well plate, and the cells were incubated overnight to allow the cells to adhere. The following day an eleven point, serial semilog dilution of each compound was added to the cells in 16 μL at a final concentration ranging from 0.3-0.000003 μM. At 4 or 24 hr post compound addition, the cells were fixed (10% formalin in PBS) for 20 minutes. Cells were permeablized in PBS 0.1% Triton and blocked with LICOR blocking buffer (50 μl/well, 90′). The wells were then incubated overnight at 4° C. with SP1 rabbit monoclonal Ab (Thermo Scientific) diluted 1:1000 in LICOR blocking buffer/0.1% Tween-20. Wells which were treated with blocking buffer with Tween but no antibody were used as a background control. Wells were washed with 0.1% Tween-20/PBS and then incubated in goat anti-rabbit IRDye™ 800CW (LICOR Inc.; 1:10000) and DRAQ5 DNA dye (1:2000 for 2 mM stock) diluted in LICOR blocking buffer containing 0.1% Tween-20 and 0.01% SDS for 60 minutes. Cells were washed (50 μl/well, 5′ each) in 0.1% Tween-20/PBS. Plates were scanned on a LICOR Odyssey infrared imaging system. Integrated intensities in the 800 nm channel and 700 nm channel were measured to determine levels of ER and DNA respectively. Percent ER levels were determined as follows: (Integrated intensity 800 nm sample/integrated intensity 700 nm sample)/(Integrated intensity 800 nm untreated cells/integrated intensity 700 nm untreated cells)×100=% ER levels. […]

| Structure (SMILES) | MCF7 Viability Assay Max Response (MCF-7 cells) | IC50 (MCF-7 cells) [nM] | Emax (ER-α in MCF-7 cells) [%] | DC50 (ER-α in MCF-7 cells) [nM] |
| --- | --- | --- | --- | --- |
| Cc1ccccc1/C(=C(\c1ccc(/C=C/C(=O)O)cc1)c1ccc2[nH]ncc2c1C#N)C1CCC1 [Example 11, (E)-3-(4-((E)-1-(4-Cyano-1H-indazol-5-yl)-2-cyclobutyl-2-(o-tolyl)vinyl)phenyl)acrylic acid] | ++ (++ = a single % value ≧ 40%) | ≤ 100 | ≥ 40 | ≤ 100 |
| N#Cc1c(/C(=C(/c2ccccc2)C2CCC2)c2ccc(/C=C/C(=O)O)cc2)ccc2[nH]nc(F)c12 [Example 12, (E)-3-(4-((E)-1-(4-Cyano-3-fluoro-1H-indazol-5-yl)-2-cyclobutyl-2-phenylvinyl)phenyl)acrylic acid] | ++ (++ = a single % value ≧ 40%) | ≤ 100 | ≥ 40 | ≤ 100 |
| N#Cc1c(/C(=C(/c2ccccc2)C2CC2)c2ccc(/C=C/C(=O)O)cc2)ccc2[nH]ncc12 [Example 13, (E)-3-(4-((E)-1-(4-Cyano-1H-indazol-5-yl)-2-cyclopropyl-2-phenylvinyl)phenyl)acrylic acid] | ++ (++ = a single % value ≧ 40%) | ≤ 100 | ≥ 40 | ≤ 100 |
| N#Cc1c(/C(=C(/c2ccccc2)C2CC2)c2ccc(/C=C/C(=O)O)cc2)ccc2[nH]nc(F)c12 [Example 14, (E)-3-(4-((E)-1-(4-Cyano-3-fluoro-1H-indazol-5-yl)-2-cyclopropyl-2-phenylvinyl)phenyl)acrylic acid] | ++ (++ = a single % value ≧ 40%) | ≤ 100 | ≥ 40 | ≤ 100 |
| CC(C)/C(=C(/c1ccc(/C=C/C(=O)O)cc1)c1ccc2[nH]nc(F)c2c1)c1ccccc1 [Example 15, (E)-3-(4-((E)-1-(3-Fluoro-1H-indazol-5-yl)-3-methyl-2-phenylbut-1-en-1-yl)phenyl)acrylic acid] | ++ (++ = a single % value ≧ 40%) | ≤ 100 | ≥ 40 | ≤ 100 |
| O=C(O)/C=C/c1ccc(/C(=C(\c2ccccc2)C2CCC2)c2ccc3[nH]nnc3c2)cc1 [Example 17, (E)-3-(4-((E)-1-(1H-Benzo[d][1,2,3]triazol-5-yl)-2-cyclobutyl-2-phenylvinyl)phenyl)acrylic acid] | ++ (++ = a single % value ≧ 40%) | ≤ 100 | ≥ 40 | ≤ 100 |
| O=C(O)/C=C/c1ccc(/C(=C(\c2ccccc2)C2CCC2)c2cccc3[nH]ncc23)cc1 [Example 18, (E)-3-(4-((E)-2-Cyclobutyl-1-(1H-indazol-4-yl)-2-phenylvinyl)phenyl)acrylic acid] | ++ (++ = a single % value ≧ 40%) | ≤ 100 | ≥ 40 | ≤ 100 |
| CC/C(=C(/c1ccc(/C=C/C(=O)O)cc1)c1ccc2scnc2c1C#N)c1ccccc1 [Example 19, (E)-3-(4-((E)-1-(4-Cyanobenzo[d]thiazol-5-yl)-2-phenylbut-1-en-1-yl)phenyl)acrylic acid] | ++ (++ = a single % value ≧ 40%) | ≤ 100 | ≥ 40 | ≤ 100 |
| Cc1cscc1/C(=C(\c1ccc(/C=C/C(=O)O)cc1)c1ccc2scnc2c1)C(C)C [Example 20, (E)-3-(4-((E)-1-(Benzo[d]thiazol-5-yl)-3-methyl-2-(4-methylthiophen-3-yl)but-1-en-1-yl)phenyl)acrylic acid] | ++ (++ = a single % value ≧ 40%) | ≤ 100 | ≥ 40 | ≤ 100 |
| N#Cc1c(/C(=C(/c2ccccc2)C2CCC2)c2ccc(/C=C/C(=O)O)cc2)ccc2scnc12 [Example 21, (E)-3-(4-((E)-1-(4-Cyanobenzo[d]thiazol-5-yl)-2-cyclobutyl-2-phenylvinyl)phenyl)acrylic acid] | ++ (++ = a single % value ≧ 40%) | ≤ 100 | ≥ 40 | ≤ 100 |
| O=C(O)/C=C/c1ccc(/C(=C(\c2ccccc2)C2CCC2)c2cc(F)c3[nH]ncc3c2F)cc1 [Example 22, (E)-3-(4-((E)-2-Cyclobutyl-1-(4,7-difluoro-1H-indazol-5-yl)-2-phenylvinyl)phenyl)acrylic acid] | ++ (++ = a single % value ≧ 40%) | > 100 | ≥ 40 | > 100 |
| COc1ccc(/C(=C(\c2ccc(/C=C/C(=O)O)cc2)c2ccc3[nH]nc(F)c3c2)C2CCC2)cc1 [Example 23, (E)-3-(4-((E)-2-Cyclobutyl-1-(3-fluoro-1H-indazol-5-yl)-2-(4-methoxyphenyl)vinyl)phenyl)acrylic acid] | ++ (++ = a single % value ≧ 40%) | ≤ 100 | ≥ 40 | ≤ 100 |
| COc1cccc(/C(=C(\c2ccc(/C=C/C(=O)O)cc2)c2ccc3[nH]nc(F)c3c2)C2CCC2)c1 [Example 24, (E)-3-(4-((E)-2-Cyclobutyl-1-(3-fluoro-1H-indazol-5-yl)-2-(3-methoxyphenyl)vinyl)phenyl)acrylic acid] | ++ (++ = a single % value ≧ 40%) | ≤ 100 | ≥ 40 | ≤ 100 |
| O=C(O)/C=C/c1ccc(/C(=C(\c2ccccc2)C2CCC2)c2ccc3[nH]ncc3c2F)cc1 [Example 25, (E)-3-(4-((E)-2-Cyclobutyl-1-(4-fluoro-1H-indazol-5-yl)-2-phenylvinyl)phenyl)acrylic acid] | ++ (++ = a single % value ≧ 40%) | ≤ 100 | ≥ 40 | ≤ 100 |
| O=C(O)/C=C/c1ccc(/C(=C(\c2ccccc2)C2CC2)c2ccc3[nH]nc(F)c3c2)cc1 [Example 26, (E)-3-(4-((E)-2-Cyclopropyl-1-(3-fluoro-1H-indazol-5-yl)-2-phenylvinyl)phenyl)acrylic acid] | ++ (++ = a single % value ≧ 40%) | ≤ 100 | ≥ 40 | ≤ 100 |
| O=C(O)/C=C/c1ccc(/C(=C(\c2ccccc2)C2CCC2)c2ccc3[nH]c(=O)oc3c2)cc1 [Example 27, (E)-3-(4-((E)-2-Cyclobutyl-1-(2-oxo-2,3-dihydrobenzo[d]oxazol-6-yl)-2-phenylvinyl)phenyl)acrylic acid] | ++ (++ = a single % value ≧ 40%) | ≤ 100 | ≥ 40 | ≤ 100 |
| O=C(O)/C=C/c1ccc(/C(=C(\c2ccc(F)cc2Cl)C2CCC2)c2ccc3[nH]c(=O)oc3c2)cc1 [Example 28, (E)-3-(4-((E)-2-(2-Chloro-4-fluorophenyl)-2-cyclobutyl-1-(2-oxo-2,3-dihydrobenzo[d]oxazol-6-yl)vinyl)phenyl)acrylic acid] | ++ (++ = a single % value ≧ 40%) | ≤ 100 | ≥ 40 | ≤ 100 |
| Cc1ccccc1/C(=C(\c1ccc(/C=C/C(=O)O)cc1)c1ccc2[nH]nc(F)c2c1)C1CC1 [Example 29, (E)-3-(4-((E)-2-Cyclopropyl-1-(3-fluoro-1H-indazol-5-yl)-2-(o-tolyl)vinyl)phenyl)acrylic acid] | ++ (++ = a single % value ≧ 40%) | ≤ 100 | ≥ 40 | ≤ 100 |
